Source: publication PMC7643960 (PLoS ONE, 2020)
“And” between values parts separate entries of the source, which are not always exact repeats. Identical values can stand only once. “Also recorded” adds a separate entry of the source.

Columns and labels:
[1] = test system: primary EMM cells eRGO1; experiment: crystal violet staining assay (CVS), proliferation; assay type: cell-based, horse; conditions: for IC50: mean (95% CI)
Method: (§1) All cells used for the experiments originate from different horses. Primary EMM cells (MelDuWi) and primary equine dermal fibroblasts (PriFi1, PriFi2) belong to the cell culture stock of the Clinic for Horses, University of Veterinary Medicine Hannover, Foundation, Hannover, Germany.
(§2) The proliferation assay was performed as published. […] Control cells were treated with medium only. The proportion of cells treated relative to untreated controls was determined by crystal violet staining and photometric absorbance measurement at the incubation time points mentioned above. Proliferation assays were performed in six to eight biological replicates with two technical replicates for each combination of cell type, incubation time and compound concentration.
(§3) Technical duplicates with a coefficient of variation of more than 20% were excluded from the cell assay analysis. […] Additional statistical data analysis was conducted with R 3.5.1.. A generalized additive model was fitted for each test (MTS and CVS) and cell type comparison (primary EMM cells and fibroblasts, and primary ES cells and fibroblasts) using the ‘mgcv’ package. Compound concentrations and the duration of incubation were modeled as tensor product smooth interacting with compound and cell line. Cell passage was added as a random effect. An appropriate distribution was selected by the visual inspection of residuals. The p-values were obtained by performing a Wald test for each parameter. Statistical significance was set at 0.05.

[2] = test system: primary equine dermal fibroblasts PriFi2; experiment: crystal violet staining assay (CVS), proliferation; assay type: cell-based, horse; conditions: for IC50: mean (95% CI)
Method: as §1, §2, §3

[3] = test system: primary EMM cells MelDuWi; experiment: crystal violet staining assay (CVS), proliferation; assay type: cell-based, horse; conditions: for IC50: mean (95% CI)
Method: as §1, §2, §3

[4] = test system: primary ES cells sRGO1; experiment: crystal violet staining assay (CVS), proliferation; assay type: cell-based, horse; conditions: for IC50: mean (95% CI)
Method: as §1, §2, §3

[5] = test system: primary equine dermal fibroblasts PriFi1; experiment: crystal violet staining assay (CVS), proliferation; assay type: cell-based, horse; conditions: for IC50: mean (95% CI)
Method: as §1, §2, §3

[6] = test system: primary ES cells sRGO2; experiment: crystal violet staining assay (CVS), proliferation; assay type: cell-based, horse; conditions: for IC50: mean (95% CI)
Method: as §1, §2, §3

[7] = test system: human carbonic anhydrase isoenzyme II; set-up: method as in PMID 15664816; conditions: cited from earlier work
[8] = test system: equine dermal fibroblasts PriFri2; experiment: AnnexinV-FITC/propidium iodide staining, flow cytometry; assay type: cell-based, horse
Method: (§4) Approximately 7.5 × 10^5 cells (MelDuWi) and 1.0 × 10^6 cells (PriFri2 and sRGO2) were seeded in 25 cm^2 cell culture flasks. […] Following 24 and 48 h of incubation, cells were harvested by mild trypsinization and washed twice with PBS buffer (containing Mg^2+ and Ca^2+). Cells (1.0 × 10^6) were resuspended in AnnexinV binding buffer (BioLegend®, San Diego, US) to a concentration of 1.0 ‧ 10^6 cells/mL. Approximately 100,000 cells were stained with propidium iodide solution ([…], 1 mg/mL) and FITC AnnexinV solution ([…], BioLegend®) for 15 min in the dark at room temperature. After the addition of Annexin V binding buffer ([…]), the suspension was analyzed using the Attune® FACS machine (Life Technologies). After gating for living cells, the data from detectors BL-1A and BL-3A were collected. A total of 20,000 events were collected from each sample and technical duplicates were measured.

[9] = test system: ES cells sRGO2; experiment: as above; assay type: cell-based, horse; conditions: double IC50 concentration
Method: as §4

[10] = test system: equine malignant melanoma [EMM] cells MelDuWi; experiment: SRB assay after 96 h; assay type: cell-based, horse; conditions: 96 h of drug exposure
Method: (§5) Approximately 7.5 × 10^5 cells (MelDuWi) and 1.0 × 10^6 cells (PriFri2 and sRGO2) were seeded in 25 cm^2 cell culture flasks. […] Following 24 and 48 h of incubation, the cells were harvested by mild trypsinization and washed twice with phosphate-buffered saline (PBS) buffer (containing Mg^2+ and Ca^2+). Cells (1.0 × 10^6) were fixed with ethanol (70%, -20°C, for 24 h). After discarding the ethanol, the cells were washed in 1 mL PBS buffer (containing Mg^2+ and Ca^2+) and were centrifuged. The cell pellet was resuspended in 1 mL of staining PBS buffer (containing Mg^2+ and Ca^2+, 10 μg/mL RNASe [Thermofisher] and 15 μg/mL propidium iodide [Sigma-Aldrich, Munich, Germany]) and was incubated for 30 min at room temperature. Analyses were performed using the Attune® FACS machine (Life Technologies, Darmstadt, Germany) collecting data from the BL-2A channel. Doublet cells were excluded from the measurements by plotting BL-2A against BL-2H. A total of 20,000 events were collected for each cell cycle distribution. Each sample was measured in duplicate.
(§6) S1 Appendix. IC50 values measured by SRB Assay after 96 h. […] Measurements were carried out at least as thrice determination.

[11] = test system: equine dermal fibroblasts PriFi2; experiment: SRB assay after 96 h; assay type: cell-based, horse; conditions: PriFri2, 96 h of drug exposure
Method: as §5, §6

[12] = test system: equine sarcoid [ES] cells sRGO2; experiment: SRB assay after 96 h; assay type: cell-based, horse; conditions: sRGO2, 96 h of drug exposure
Method: as §5, §6

[13] = test system: mice; conditions: cited from earlier work
[14] = test system: horses affected by EMM; set-up: method as in PMID 26772157; conditions: two EMM patients, once a week for 19 consecutive weeks; cited from earlier work
[15] = PriFri2, 24 h, double IC50 concentration
[16] = PriFri2, 48 h, double IC50 concentration
[17] = equine dermal fibroblasts, 24 h, versus control

## C=C(C)[C@@H]1CC[C@]2(COS(N)(=O)=O)CC[C@]3(C)[C@H](CC[C@@H]4[C@@]5(C)CC[C@H](OS(N)(=O)=O)C(C)(C)[C@@H]5CC[C@]43C)[C@@H]12 [BBS, (3β)-Lup-20(29)-ene-3,28-diol, 3,28-disulfamate]
[1]; eRGO1, 5 h
  IC50: > 100 µM
[1]; eRGO1, 24 h
  IC50: 42 µM
[1]; eRGO1, 48 h
  IC50: 25 µM
[1]; eRGO1, 96 h
  IC50: 15 µM
[2]; PriFi2, 5 h
  IC50: > 100 µM
[2]; PriFi2, 24 h
  IC50: 62 µM
[2]; PriFi2, 48 h
  IC50: 39 µM
[2]; PriFi2, 96 h
  IC50: 16 µM
[3]; 5 h
  IC50: > 100 µM
[3]; 24 h
  IC50: 50 µM
[3]; 48 h
  IC50: 36 µM
[3]; 96 h
  IC50: 16 µM
[4]; sRGO1, 5 h
  IC50: > 100 µM
[4]; sRGO1, 24 h
  IC50: 40 µM
[4]; sRGO1, 48 h
  IC50: 23 µM
[5]; PriFi1, 5 h
  IC50: > 100 µM
[5]; PriFi1, 24 h
  IC50: 52 µM
[5]; PriFi1, 48 h
  IC50: 42 µM
[5]; PriFi1, 96 h
  IC50: 17 µM
[6]; sRGO2, 5 h
  IC50: > 100 µM
[6]; sRGO2, 24 h
  IC50: 38 µM
[6]; sRGO2, 48 h
  IC50: 29 µM
[7]
  inhibition of carbonic anhydrase II: efficient inhibitor
[8]; [15]
  AnnexinV staining: Living cells: 68,0%
  AnnexinV staining: early apop: 8,0%
  AnnexinV staining: late apop: 22,4%
  AnnexinV staining: necrotic: 1,6%
[8]; [16]
  AnnexinV staining: Living cells: 33,1%
  AnnexinV staining: early apop: 9,3%
  AnnexinV staining: late apop: 54% and 53.6%
  AnnexinV staining: necrotic: 4,1%
[8]; [17]
  increase of early apoptotic cells: 5%
  increase of late apoptotic cells: 3%
[9]; sRGO2, 24 h
  AnnexinV staining: Living cells: 41,1%
  AnnexinV staining: early apop: 19,1%
  AnnexinV staining: late apop: 38,5%
  AnnexinV staining: necrotic: 1,3%
[9]; sRGO2, 48 h
  AnnexinV staining: Living cells: 8,7%
  AnnexinV staining: apoptotic cells (early and late): approximately 90%
  AnnexinV staining: early apop: 7,5%
  AnnexinV staining: late apop: 82% and 82.1%
  AnnexinV staining: necrotic: 1,8%
[10]
  IC50: 14.9 µM
[11]
  IC50: 19.6 µM
[12]
  IC50: 24.3 µM

## C=C(C)[C@@H]1CC[C@]2(C(=O)OCC(N)(CO)CO)CC[C@]3(C)[C@H](CC[C@@H]4[C@@]5(C)CC[C@H](OC(C)=O)C(C)(C)[C@@H]5CC[C@]43C)[C@@H]12 [NVX-207, 3-acetyl-betulinic acid-2-amino-3-hydroxy-2-hydroxymethyl-propanoate]
[1]; eRGO1, 5 h
  IC50: 10 µM
[1]; eRGO1, 24 h
  IC50: 5 µM
[1]; eRGO1, 48 h
  IC50: < 1 µM
[1]; eRGO1, 96 h
  IC50: < 1 µM
[1]; eRGO1, after 48 h, CVS
  NVX-207 exceeded BBSs' antiproliferative effects: about 25 times
[2]; PriFi2, 5 h
  IC50: 14 µM
[2]; PriFi2, 24 h
  IC50: 8 µM
[2]; PriFi2, 48 h
  IC50: 7 µM
[2]; PriFi2, 96 h
  IC50: < 1 µM
[2]; PriFi2, after 48 h, CVS
  NVX-207 exceeded BBSs' antiproliferative effects: ~6 times
[3]; 5 h
  IC50: 20 µM
[3]; 24 h
  IC50: 16 µM
[3]; 48 h
  IC50: 12 µM
[3]; 96 h
  IC50: 4 µM
[3]; after 48 h, CVS
  NVX-207 exceeded BBSs' antiproliferative effects: ~3 times
[4]; sRGO1, 5 h
  IC50: 7 µM
[4]; sRGO1, 24 h
  IC50: 7 µM
[4]; sRGO1, 48 h
  IC50: < 1 µM
[4]; sRGO1, after 48 h, CVS
  NVX-207 exceeded BBSs' antiproliferative effects: about 23 times
[5]; PriFi1, 5 h
  IC50: 11 µM
[5]; PriFi1, 24 h
  IC50: 4 µM
[5]; PriFi1, 48 h
  IC50: 2 µM
[5]; PriFi1, 96 h
  IC50: < 1 µM
[5]; PriFi1, after 48 h, CVS
  NVX-207 exceeded BBSs' antiproliferative effects: about 23 times
[6]; sRGO2, 5 h
  IC50: 6 µM
[6]; sRGO2, 24 h
  IC50: < 1 µM
[6]; sRGO2, 48 h
  IC50: < 1 µM
[6]; sRGO2, after 48 h, CVS
  NVX-207 exceeded BBSs' antiproliferative effects: ~29 times
[13]
  side effects after intravenous application: did not lead to any side effects
[14]
  safety of intralesional injection: proved to be safe; also recorded: well tolerated
[8]; PriFi2, 48 h, double IC50 concentration
  AnnexinV staining: apoptotic cells: about 85%
[8]; [15]
  AnnexinV staining: Living cells: 50,0%
  AnnexinV staining: early apop: 10,2%
  AnnexinV staining: late apop: 37,6%
  AnnexinV staining: necrotic: 2,2%
[8]; [16]
  AnnexinV staining: Living cells: 12,3%
  AnnexinV staining: early apop: 17,9%
  AnnexinV staining: late apop: 67,1%
[9]; sRGO2, 24 h
  AnnexinV staining: Living cells: 76,6%
  AnnexinV staining: early apop: 3,7%
  AnnexinV staining: late apop: 19,1%
  AnnexinV staining: necrotic: 0,5%
[9]; sRGO2, 48 h
  AnnexinV staining: Living cells: 38,5%
  AnnexinV staining: apoptotic cells (early and late): about 60%
  AnnexinV staining: early apop: 12,5%
  AnnexinV staining: late apop: 47,9%
[10]
  IC50: 3.7 µM
[11]
  IC50: 3.8 µM
[12]
  IC50: 3.1 µM
